This is an account of results in US10407425B2, “Indazole inhibitors of the Wnt signal pathway and therapeutic uses thereof” (Samumed, LLC, priority 2012, dated 2019).

A value given as a limit tells only on which side of the number the result lay.

For this experiment, the system named is Wnt activity. Nature of the experiment: Wnt activity reporter assay (SP5 promoter firefly luciferase in SW480 cells). The experiment is classed as cell-based. Particulars: Homo sapiens; SW480 cells bearing SP5 promoter luciferase reporter; 24 h after compound addition; read-out: Wnt inhibition. The source says: The above synthesized compounds were screened using the assay procedure for Wnt activity described below.
Reporter cell lines can be generated by stably transducing cells of cancer cell lines (e.g., colon cancer) with a lentiviral construct that include a wnt-responsive promoter driving expression of the firefly luciferase gene.
Lentiviral constructs can be made in which the SP5 promoter, a promoter having eight TCF/LEF binding sites derived from the SP5 promoter, is linked upstream of the firefly luciferase gene. The lentiviral constructs can also include a hygromycin resistance gene as a selectable marker. The SP5 promoter construct can be used to transduce SW480 cells, a colon cancer cell line having a mutated APC gene that generates a truncated APC protein, leading to de-regulated accumulation of β-catenin.
Cultured SW480 cells bearing a reporter construct can be distributed at approximately 10,000 cells per well into 384 well multiwell plates. Compounds from a small molecule compound library can then be added to the wells in half-log dilutions using a three micromolar top concentration. A series of control wells for each cell type receive only buffer and compound solvent. Twenty-four hours after the addition of compound, reporter activity for luciferases can be assayed, for example, by addition of the BrightGlo luminescence reagent (Promega) and the Victor3 plate reader (Perkin Elmer). Readings can be normalized to DMSO only treated cells, and normalized activities can then be used in the IC50 calculations.
A general note: In a reporter assay the amount or activity of a reporter protein is the signal.
Turning to `O=C(Cc1ccccc1)Nc1cncc(-c2ccc3[nH]nc(-c4nc5c(-c6cccc(F)c6)cncc5[nH]4)c3c2)c1` [Compound 86, N-(5-(3-(7-(3-Fluorophenyl)-3H-imidazo[4,5-c]pyridin-2-yl)-1H-indazol-5-yl)pyridin-3-yl)-2-phenylacetamide], the IC50 was determined as 23 nM. The figure for `CC(C)C(=O)Nc1cncc(-c2ccc3[nH]nc(-c4nc5c(-c6ccccc6F)cncc5[nH]4)c3c2)c1` [Compound 31, N-(5-(3-(7-(2-Fluorophenyl)-3H-imidazo[4,5-c]pyridin-2-yl)-1H-indazol-5-yl)pyridin-3-yl)isobutyramide] is 5 nM; for `Nc1cncc(-c2ccc3[nH]nc(-c4nc5c(-c6ccsc6)cncc5[nH]4)c3c2)c1` [Compound 291, 5-(3-(7-(Thiophen-3-yl)-3H-imidazo[4,5-c]pyridin-2-yl)-1H-indazol-5-yl)pyridin-3-amine] it is 2 nM; for `FC1(F)CCN(Cc2cncc(-c3ccc4[nH]nc(-c5nc6c(N7CCCCC7)cncc6[nH]5)c4c3)c2)C1` [Compound 342, 2-(5-(5-((3,3-Difluoropyrrolidin-1-yl)methyl)pyridin-3-yl)-1H-indazol-3-yl)-7-(piperidin-1-yl)-3H-imidazo[4,5-c]pyridine] it is 20 nM.

For `O=C(Nc1cncc(-c2ccc3[nH]nc(-c4nc5c(N6CCCCC6)cncc5[nH]4)c3c2)c1)C1CCC1` [Compound 217, N-(5-(3-(7-(Piperidin-1-yl)-3H-imidazo[4,5-c]pyridin-2-yl)-1H-indazol-5-yl)pyridin-3-yl)cyclobutanecarboxamide], the IC50 stood at 39 nM. In the case of `CC(C)CC(=O)Nc1cncc(-c2ccc3[nH]nc(-c4nc5c(-c6cccc(F)c6)cncc5[nH]4)c3c2)c1` [Compound 10, N-(5-(3-(7-(3-fluorophenyl)-3H-imidazo[4,5-c]pyridin-2-yl)-1H-indazol-5-yl)pyridin-3-yl)-3-methylbutanamide], the IC50 fell in the range of 3.4 to 9 nM. The figure for `Nc1cncc(-c2ccc3[nH]nc(-c4nc5c(-c6ccc(F)cc6)cncc5[nH]4)c3c2)c1` [Compound 97, 5-(3-(7-(4-Fluorophenyl)-3H-imidazo[4,5-c]pyridin-2-yl)-1H-indazol-5-yl)pyridin-3-amine] is 1 nM; for `CN1CCN(c2cncc3[nH]c(-c4n[nH]c5ccc(-c6cncc(NC(=O)C7CCCCC7)c6)cc45)nc23)CC1` [Compound 263, N-(5-(3-(7-(4-Methylpiperazin-1-yl)-3H-imidazo[4,5-c]pyridin-2-yl)-1H-indazol-5-yl)pyridin-3-yl)cyclohexanecarboxamide] it is 86 nM; for `O=C(Nc1cncc(-c2ccc3[nH]nc(-c4nc5c(-c6ccoc6)cncc5[nH]4)c3c2)c1)C1CCCCC1` [Compound 333, N-(5-(3-(7-(Furan-3-yl)-3H-imidazo[4,5-c]pyridin-2-yl)-1H-indazol-5-yl)pyridin-3-yl)cyclohexanecarboxamide] it is 26 nM. The figure for `O=C(Nc1cncc(-c2ccc3[nH]nc(-c4nc5ccncc5[nH]4)c3c2)c1)C1CC1` [Compound 283, N-(5-(3-(3H-Imidazo[4,5-c]pyridin-2-yl)-1H-indazol-5-yl)pyridin-3-yl)cyclopropanecarboxamide] is 8 nM; for `CN(C)Cc1cncc(-c2ccc3[nH]nc(-c4nc5c(-c6cccc(F)c6)cncc5[nH]4)c3c2)c1` [Compound 89, 1-(5-(3-(7-(3-Fluorophenyl)-3H-imidazo[4,5-c]pyridin-2-yl)-1H-indazol-5-yl)pyridin-3-yl)-N,N-dimethylmethanamine] it is above 10000 nM. The figure for `CC(C)CC(=O)Nc1cncc(-c2ccc3[nH]nc(-c4nc5c(-c6ccc(F)cc6)cncc5[nH]4)c3c2)c1` [Compound 12, N-(5-(3-(7-(4-fluorophenyl)-3H-imidazo[4,5-c]pyridin-2-yl)-1H-indazol-5-yl)pyridin-3-yl)-3-methylbutanamide] is 6 to 8 nM; for `CC(C)(C)C(=O)Nc1cncc(-c2ccc3[nH]nc(-c4nc5c(-c6ccoc6)cncc5[nH]4)c3c2)c1` [Compound 319, N-(5-(3-(7-(Furan-3-yl)-3H-imidazo[4,5-c]pyridin-2-yl)-1H-indazol-5-yl)pyridin-3-yl)pivalamide] it is 5 nM; for `CC(C)(C)CC(=O)Nc1cncc(-c2ccc3[nH]nc(-c4nc5c(-c6cccc(F)c6)cncc5[nH]4)c3c2)c1` [Compound 90, N-(5-(3-(7-(3-Fluorophenyl)-3H-imidazo[4,5-c]pyridin-2-yl)-1H-indazol-5-yl)pyridin-3-yl)-3,3-dimethylbutanamide] it is 12 nM.

With `CC(C)CC(=O)Nc1cncc(-c2ccc3[nH]nc(-c4nc5c(-c6ccccc6F)cncc5[nH]4)c3c2)c1` [Compound 11, N-(5-(3-(7-(2-fluorophenyl)-3H-imidazo[4,5-c]pyridin-2-yl)-1H-indazol-5-yl)pyridin-3-yl)-3-methylbutanamide], the IC50 fell in the range of 3.5 to 65 nM.

For the compound `c1cc(-c2cncc3[nH]c(-c4n[nH]c5ccc(-c6cncc(CN7CCCC7)c6)cc45)nc23)ccn1` [Compound 163, 7-(Pyridin-4-yl)-2-(5-(5-(pyrrolidin-1-ylmethyl)pyridin-3-yl)-1H-indazol-3-yl)-3H-imidazo[4,5-c]pyridine], the IC50 turned out to be 296 nM. Consider `O=C(Cc1ccccc1)Nc1cncc(-c2ccc3[nH]nc(-c4nc5c(-c6ccoc6)cncc5[nH]4)c3c2)c1` [Compound 321, N-(5-(3-(7-(Furan-3-yl)-3H-imidazo[4,5-c]pyridin-2-yl)-1H-indazol-5-yl)pyridin-3-yl)-2-phenylacetamide], for which the IC50 came to 33 nM.

Regarding `CC(C)CC(=O)Nc1cncc(-c2ccc3[nH]nc(-c4nc5c(-c6cc(F)cc(NCCN(C)C)c6)cncc5[nH]4)c3c2)c1` [Compound 349, N-(5-(3-(7-(3-(2-(Dimethylamino)ethylamino)-5-fluorophenyl)-3H-imidazo[4,5-c]pyridin-2-yl)-1H-indazol-5-yl)pyridin-3-yl)-3-methylbutanamide], the IC50 amounted to 22 nM. For `Fc1cccc(-c2cncc3[nH]c(-c4n[nH]c5ccc(-c6cncc(CN7CCC(F)(F)C7)c6)cc45)nc23)c1` [Compound 336, 2-(5-(5-((3,3-Difluoropyrrolidin-1-yl)methyl)pyridin-3-yl)-1H-indazol-3-yl)-7-(3-fluorophenyl)-3H-imidazo[4,5-c]pyridine] the value was 55 nM; for `c1cc(-c2cncc3[nH]c(-c4n[nH]c5ccc(-c6cncc(CNCC7CCCC7)c6)cc45)nc23)ccn1` [Compound 173, 1-Cyclopentyl-N-((5-(3-(7-(pyridin-4-yl)-3H-imidazo[4,5-c]pyridin-2-yl)-1H-indazol-5-yl)pyridin-3-yl)methyl)methanamine], 845 nM. For `Cc1ccncc1-c1ccc2[nH]nc(-c3nc4c(-c5ccsc5)cncc4[nH]3)c2c1` [Compound 293, 2-(5-(4-Methylpyridin-3-yl)-1H-indazol-3-yl)-7-(thiophen-3-yl)-3H-imidazo[4,5-c]pyridine] the value was 191 nM; for `CN1CCN(c2cncc3[nH]c(-c4n[nH]c5ccc(-c6cccnc6)cc45)nc23)CC1` [Compound 4, 7-(4-methylpiperazin-1-yl)-2-(5-(pyridin-3-yl)-1H-indazol-3-yl)-3H-imidazo[4,5-c]pyridine], 13 to 40 nM.
